Measurements: patent US12533362B2, “Methods for treating diseases associated with ciliopathies” (ALEXION PHARMACEUTICALS, INC., priority 2017, dated 2026)

Assays:
[1] = tested on: NPHP patient-derived cells; test: automated cilia-based ciliogenesis assay in NPHP patient-derived cells; type: cell-based, human; settings: for effect on ciliogenesis (percentage of ciliated cells) as compared with DMSO: drug screening, various tested concentrations, FIG. 5 / FIG. 6; for restoration of ciliogenesis at the highest concentration: 40 μM dinoprostone and 20 μM dmPGE2, may be due to cytotoxicity; for ciliogenesis restorative effect: FIG. 11A
Source text: (§1) To identify compounds for treating diseases associated with ciliopathies such as, for example, NPHP, NPHP patient-derived cells were obtained and cell lines were established. Briefly, peeled renal epithelial cells, which are mostly proximal tubule cells (tbc) recovered from urine of NPHP1-deficient patients, were immortalized by retroviral gene transfer of SV40 T antigen. Cells were fixed and fluorescence-labeled with Hoechst (for nuclei staining), anti-γ-tubulin antibody (for basal bodies staining), and anti-ARL13B antibody (for cilia staining) for detection using immunofluorescence microscopy.
(§2) Briefly, NPHP patient-derived cells and control cells were cultured in complete media, at 39C (non-permissive temperature for SV40 expression), followed by automatic cilia analysis using immunofluorescence microscopy to measure ciliogenesis, e.g., in terms of % cilia. A spinning disk platform may be used for drug screening (FIG. 5, A-J) and ciliogenesis analysis of G3 multi-OMICs dataset (FIG. 29, A-E).
(§3) The cilia-based assay described above may be used to identify compounds that restore ciliogenesis. […] Automated random acquisition of 35 images per well may be performed, for example. Each image may have z-stack of 10 images taken at <1 μm intervals.

EP4 receptor = EP4 receptor (Homo sapiens, UniProt P35408); settings: cited from earlier work
EP4 receptor, sequence (P35408 whole entry): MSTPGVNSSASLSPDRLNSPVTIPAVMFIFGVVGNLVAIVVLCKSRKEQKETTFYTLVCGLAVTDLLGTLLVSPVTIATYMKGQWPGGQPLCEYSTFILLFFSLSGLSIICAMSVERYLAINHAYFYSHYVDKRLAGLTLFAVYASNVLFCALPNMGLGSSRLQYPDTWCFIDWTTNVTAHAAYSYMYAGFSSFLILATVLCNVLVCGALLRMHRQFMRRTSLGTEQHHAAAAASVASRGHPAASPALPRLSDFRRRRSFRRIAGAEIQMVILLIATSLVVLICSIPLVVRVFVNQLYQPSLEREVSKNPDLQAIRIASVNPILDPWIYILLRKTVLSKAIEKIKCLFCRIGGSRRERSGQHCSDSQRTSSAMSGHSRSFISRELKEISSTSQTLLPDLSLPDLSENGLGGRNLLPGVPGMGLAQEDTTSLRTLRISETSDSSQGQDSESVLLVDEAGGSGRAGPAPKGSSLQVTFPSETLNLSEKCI

zebrafish NPHP4 MO = test: zebrafish NPHP4 morpholino (MO) model; type: in vivo
Procedure: Briefly, wild-type Tg(wt1b:GFP) transgenic zebrafish embryos were injected with morpholino (e.g., nphp4 ATG MO) at one-cell stage. At 8 hours post-fertilization (hpf), injected embryos were treated with drug or vehicle in PTU-egg water (1 mL in 12-well plates). At 24 hpf, drug treatment was renewed, and pronase was added at 36 hpf for chorion removal.

[2] = pharmacokinetics study in wild type mice; settings: intraperitoneal; taprenepag isopropyl 1 mg/kg or 8 mg/kg, taprenepag 8 mg/kg; different time points
Procedure: After intraperitoneal injections of taprenepag isopropyl (1 mg/kg or 8 mg/kg) or taprenepag (8 mg/kg), the concentrations of these compounds in various organs were determined at different time points.

Nphp1−/− mice = test: retinal degeneration in Nphp1−/− mouse model; type: in vivo
Procedure: Homozygous deletion of NPHP1 is the most common cause of juvenile nephronophthisis 1. Homozygous or compound heterozygous mutations in NPHP1 are also associated with, for example, Joubert syndrome 4 (brain abnormalities) and Senior-Løken syndrome 1 (retinopathy). NPHP1 KO animals were generated to test whether taprenepag can be used to treat these diseases. To establish a CRISPR/Cas9-engineered Nphp1^−/− mouse model, single guide RNAs were injected in C57BL/6J embryos, and generated a 76 bp deletion encompassing the ATG in exon 1 of Nphp1. To characterize the natural history of Nphp1^−/− mouse model, histochemical staining of kidney and retina sections was performed from Nphp1^+/+ and Nphp1^−/− mice.
To evaluate the retinal degeneration, a semi-automated tool was developed to provide detection and quantitative thickness measurements of each retinal layers at five distant plans manually marked on the retinal section (FIG. 38B). Semi-automated quantification analysis confirms a clear decrease in thickness of photoreceptors layers ONL, IS and OS (FIG. 38C).
To assess the effect of Nphp1 deletion on the structural organization of photoreceptors in this model, immunohistochemistry (IH) analysis was performed on retina sections from Nphp1^+/+ and Nphp1^−/− mice (FIGS. 39A and B). Tissues were fixed and fluorescence-labeled with DAPI (for nuclei staining), anti-rhodopsin antibody (for OS staining), and anti-Cep290 antibody (for connecting cilia staining) or PNA (for OS and IS staining), detected using immunofluorescence microscopy.
To assess the effect of Nphp1 deletion on the functionality of photoreceptors, electroretinogram (ERG) was performed on Nphp1^+/+ and Nphp1^−/− mice, under light stimuli of different intensities (FIGS. 40A-C). FIGS. 40A and B show ERG a- and b-waves recorded from the same animals at P21, for a given light intensity. In contrast with Nphp1^+/+ mice, Nphp1^−/− mice display drastically lower ERG amplitudes at a given intensity of light stimulus. […]

[3] = tested on: control normal epithelial cells; test: automated cilia-based ciliogenesis assay in control normal epithelial cells; type: cell-based, human; settings: control normal cells, FIG. 11A
Source text: as §1, §2
as §3, with “intervals. Consecutive imaging of nucleus (Hoechst at 461 nm), basal body (γ-tubulin at 555 nm) and cilia (ARL13b at 647 nm) may be obtained.” for “intervals.”

control cells = test: exogenous PGE2 effect on cilia in control cells; type: cell-based; settings: addition of exogenous PGE2, FIG. 12
[4] = meta-analysis, multiple NPHP patient-derived cell lines

With `O=C1c2c(O)ccc(O)c2C(=O)c2c(NCCNCCO)ccc(NCCNCCO)c21` [mitoxantrone] the “effect on ciliogenesis (percentage of ciliated cells) as compared with DMSO” value [1] was “did not have a significant effect on ciliogenesis”.
With `COc1ccc(CCN(C)CCCC(C#N)(c2ccc(OC)c(OC)c2)C(C)C)cc1OC` (stereo not drawn) [verapamil] the “effect on ciliogenesis (percentage of ciliated cells) as compared with DMSO” value [1] was “did not have a significant effect on ciliogenesis”.
For `Cc1cccc([C@@H](C)[C@H](O)/C=C/[C@@H]2[C@@H]3[C@H](C[C@H]2O)O/C(=C\CCCc2nnn[nH]2)C3(F)F)c1` [KAG-308], the “EP4 agonist potency” value (EP4 receptor) is listed as “low nanomolar EP4-agonist”.
With `O=C(O)COc1cccc(CN(Cc2ccc(-n3cccn3)cc2)S(=O)(=O)c2cccnc2)c1` [CP-544326, taprenepag] the “% severe, mild and normal pronephric cysts” value (zebrafish NPHP4 MO; 100 nM vs DMSO, p<0.01 Fischer's exact test) was “significantly reduces % severe pronephric cysts and increases % mild and normal pronephric cysts”, the “stability in vivo (concentrations in plasma, kidney, testis, retina, vitreous humor)” value [2] was “more stable than taprenepag isopropyl” and the “ONL/OPL retina layers thicknesses ratio” value (Nphp1−/− mice; 18 mg/kg i.p. every 3 or 4 days from P6 until P21, vs vehicle, p<0.05 Mann-Whitney test) was “significantly prevents the decrease of ONL/OPL ratio”. The “rhodopsin mislocalization (Mean Green intensity in ONL)” value (Nphp1−/− mice; 18 mg/kg i.p., vs vehicle, p<0.05 unpaired t-test) was “significantly prevented rhodopsin mislocalization”, the “electroretinogram a-wave amplitude of photoreceptor response” value (Nphp1−/− mice; 18 mg/kg i.p., vs vehicle-treated Nphp1−/− mice) was “slight improvement in the amplitude of photoreceptor response” and the “ciliogenesis, dose response compared to DMSO” value ([1]; FIG. 16B) was “restores ciliogenesis in a dose-dependent manner”. The “ciliogenesis as compared with DMSO” value ([1]; cell lines 1-09-P, 1-06-P1 and 1-06-P2 derived from NPHP1(del) patients, FIG. 17C) was “increases ciliogenesis in multiple cell lines”, the “ciliogenesis, meta-analysis” value ([1]; compared with alprostadil, FIG. 16A) was “restores ciliogenesis to a similar level as alprostadil” and the “linear regression pooled slope value of effect on ciliogenesis” value [1, 4] was 1.36. For the same molecule, the “linear regression range of slope values of effect on ciliogenesis” value [1, 4] was 1.245 to 1.532 and the EC50 ([1]; semi-log representation of ciliogenesis titration, FIG. 16C, read-out: EC50 for EP2 from CP-544326 titration) was 11 nM.
For `CC(=O)O[C@H]1C(=O)[C@@]2(C)[C@H]([C@H](OC(=O)c3ccccc3)[C@]3(O)C[C@H](OC(=O)[C@H](O)[C@@H](NC(=O)c4ccccc4)c4ccccc4)C(C)=C1C3(C)C)[C@]1(OC(C)=O)CO[C@@H]1C[C@@H]2O` [paclitaxel], the “effect on ciliogenesis (percentage of ciliated cells) as compared with DMSO” value [1] was “did not have a significant effect on ciliogenesis”.
With `COc1ccc(C2CC(c3ccccc3)=NN2c2ccc(S(N)(=O)=O)cc2)cc1` (stereo not drawn) [ML-141] the “effect on ciliogenesis (percentage of ciliated cells) as compared with DMSO” value [1] was “did not have a significant effect on ciliogenesis”.
With `CN1[C@@H]2CC[C@H]1C[C@@H](OC(=O)c1c[nH]c3ccccc13)C2` [tropisetron] the “effect on ciliogenesis (percentage of ciliated cells) as compared with DMSO” value [1] was “did not have a significant effect on ciliogenesis”.
With `CN(C)CCC(c1ccccc1)c1ccccn1` (stereo not drawn) [pheniramine] the “effect on ciliogenesis (percentage of ciliated cells) as compared with DMSO” value [1] was “did not have a significant effect on ciliogenesis”.
With `CCN(CC)C(C)CN1c2ccccc2Sc2ccccc21` (stereo not drawn) [ethopropazine] the “effect on ciliogenesis (percentage of ciliated cells) as compared with DMSO” value [1] was “did not have a significant effect on ciliogenesis”.
For `O=C1CC[C@H](/C=C/[C@@H](O)C(F)(F)c2ccccc2)N1CCCCCCc1nnn[nH]1` [L902,688], the effect on ciliogenesis ([1]; prostanoid EP4 agonist, FIG. 17A) was “does not significantly affect ciliogenesis”.
In the case of `CCCCC[C@H](O)/C=C/[C@H]1[C@H](O)CC(=O)[C@@H]1C/C=C\CCCC(=O)O` [dinoprostone, prostaglandin E2], the “% severe, mild and normal pronephric cysts” value (zebrafish NPHP4 MO; 50 μM vs DMSO, p<0.008 Fischer's exact test) is reported as “significantly reduced % severe and mild pronephric cysts and increased % normal pronephric cysts”, the “% normal body axis curvature” value (zebrafish NPHP4 MO; 50 μM vs DMSO, p=0.0066 Fischer's exact test) is reported as “significantly increases % normal body axis curvature” and the dorsal curvature (zebrafish NPHP4 MO; 50 μM vs DMSO, p=0.0577 t-test) is reported as “did not significantly affect dorsal curvature”. For the same molecule, the effect on ciliogenesis [3] was “no significant effect was observed”, the “cilia length and percentages of ciliated cells” value (control cells) was “increased both cilia length and percentages of ciliated cells” and the “restoration of ciliogenesis at the highest concentration” value [1] was “slight decrease in restoration of ciliogenesis”. The ciliogenesis restorative effect [1] was “ciliogenesis restorative effects similar to that of alprostadil”.
With `CCCCC(C)(C)[C@H](O)/C=C/[C@H]1[C@H](O)CC(=O)[C@@H]1C/C=C\CCCC(=O)O` [dmPGE2, 16,16-dimethyl-PGE2] the effect on ciliogenesis [3] was “no significant effect was observed”, the “restoration of ciliogenesis at the highest concentration” value [1] was “slight decrease in restoration of ciliogenesis” and the ciliogenesis restorative effect [1] was “ciliogenesis restorative effects similar to that of alprostadil”.
